Tests used:
Details in all cases: incubation time: 72 h
[1] = tested on: BT-474; assay: normalised response (% of control), CellTox Green; higher = less cell death (100 = DMSO, 0 = benzethonium chloride kill control)
Procedure, shortened: (§1)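 Each entry is the normalised signal at a single concentration within a series. The series comprised 5 concentrations in 10-fold steps over a compound-specific 10,000-fold range, placed in 384-well plates into which breast cancer cell lines were seeded as 20 µl suspension and incubated 72 h. CellTox Green (485/520 nm) fluorescence and then CellTiter-Glo luminescence were read, with signals normalised per plate to 0.1 % DMSO (100) and a positive kill control (0).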

[2] = tested on: BT-549; assay: as above
Procedure, shortened: as §1

[3] = tested on: CAL-120; assay: as above
Procedure, shortened: as §1

[4] = tested on: CAL-148; assay: as above
Procedure, shortened: as §1

[5] = tested on: CAL-51; assay: as above
Procedure, shortened: as §1

[6] = tested on: CAL-85-1; assay: as above
Procedure, shortened: as §1

[7] = tested on: DU-4475; assay: as above
Procedure, shortened: as §1

[8] = tested on: HCC1143; assay: as above
Procedure, shortened: as §1

[9] = tested on: HCC1599; assay: as above
Procedure, shortened: as §1

[10] = tested on: HCC1937; assay: as above
Procedure, shortened: as §1

[11] = tested on: HDQ-P1; assay: as above
Procedure, shortened: as §1

[12] = tested on: Hs578T; assay: as above
Procedure, shortened: as §1

[13] = tested on: MCF-10A; assay: as above
Procedure, shortened: as §1

[14] = tested on: MDA-MB-231; assay: as above
Procedure, shortened: as §1

[15] = tested on: MDA-MB-436; assay: as above
Procedure, shortened: as §1

[16] = tested on: MDA-MB-453; assay: as above
Procedure, shortened: as §1

[17] = tested on: MDA-MB-468; assay: as above
Procedure, shortened: as §1

[18] = tested on: MFM-223; assay: as above
Procedure, shortened: as §1

[19] = tested on: BT-474; assay: normalised response (% of control), CellTiter-Glo; higher = more viable cells (100 = DMSO, 0 = benzethonium chloride kill control)
Experimental: (§2)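 DSRT, 72 h incubation, CellTox Green / CellTiter-Glo readout. Signal is normalised to DMSO and benzethonium chloride controls. Value is the normalised response at the highest dose.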

[20] = tested on: BT-549; assay: as above
Experimental: as §2

[21] = tested on: CAL-120; assay: as above
Experimental: as §2

[22] = tested on: CAL-148; assay: as above
Experimental: as §2

[23] = tested on: CAL-51; assay: as above
Experimental: as §2

[24] = tested on: CAL-85-1; assay: as above
Experimental: as §2

[25] = tested on: DU-4475; assay: as above
Experimental: as §2

[26] = tested on: HCC1143; assay: as above
Experimental: as §2

[27] = tested on: HCC1599; assay: as above
Experimental: as §2

[28] = tested on: HCC1937; assay: as above
Experimental: as §2

[29] = tested on: HDQ-P1; assay: as above
Experimental: as §2

[30] = tested on: Hs578T; assay: as above
Experimental: as §2

[31] = tested on: MCF-10A; assay: as above
Experimental: as §2

[32] = tested on: MDA-MB-231; assay: as above
Experimental: as §2

[33] = tested on: MDA-MB-436; assay: as above
Experimental: as §2

[34] = tested on: MDA-MB-453; assay: as above
Experimental: as §2

[35] = tested on: MDA-MB-468; assay: as above
Experimental: as §2

[36] = tested on: MFM-223; assay: as above
Experimental: as §2

[37] = tested on: SK-BR-3; assay: as above
Experimental: as §2

Compound	normalised response [1] [%]	normalised response [2] [%]	normalised response [3] [%]	normalised response [4] [%]	normalised response [5] [%]	normalised response [6] [%]	normalised response [7] [%]	normalised response [8] [%]	normalised response [9] [%]	normalised response [10] [%]	normalised response [11] [%]	normalised response [12] [%]	normalised response [13] [%]	normalised response [14] [%]	normalised response [15] [%]	normalised response [16] [%]	normalised response [17] [%]	normalised response [18] [%]	normalised response [19] [%]	normalised response [20] [%]	normalised response [21] [%]	normalised response [22] [%]	normalised response [23] [%]	normalised response [24] [%]	normalised response [25] [%]	normalised response [26] [%]	normalised response [27] [%]	normalised response [28] [%]	normalised response [29] [%]	normalised response [30] [%]	normalised response [31] [%]	normalised response [32] [%]	normalised response [33] [%]	normalised response [34] [%]	normalised response [35] [%]	normalised response [36] [%]	normalised response [37] [%]
COc1cc2c(NC3CCN(C(C)C)CC3)nc(N3CCC(F)(F)CC3)nc2cc1OCCCN1CCCC1 [UNC0642] (10000 nM)	-7.97	104	19.6	44.5	113	-18.1	95.5	76.4	87.4	29.2	93.1	122	57	-38.7	44	43.1	-31.3	81.9	33.3	56.3	60.9	32.4	79	5.34	76.3	70.4	94.2	56.7	48.9	91.6	40.9	18.8	19.1	5.97	3.41	32.9	29.6
COC(=O)c1ccc2c(c1)NC(=O)/C2=C(\Nc1ccc(N(C)C(=O)CN2CCN(C)CC2)cc1)c1ccccc1 [Nintedanib] (10000 nM)	-15.7	27.7	77.8	79.6	-13	85.3	96.7	87.2	99.9	14.2	61.2	104	31.4	-69.5	42.1	99.7	15.6	92.7	3.88	0.72	52.1	90.8	2.78	87.7	84.8	48	84	27.6	40.1	82.3	40.1	1.73	17.1	73.4	4.97	50.6	71
COc1cc(O)c2c(c1)/C=C/C[C@H](O)[C@H](O)C(=O)/C=C\C[C@H](C)OC2=O [(5Z)-7-Oxozeaenol] (10000 nM)	54.5	79.2	83.6	56.2	45.5	27.7	57.9	135	97.8	-41.8	87.9	49.4	64.3	28.4	102	85.9	51.8	67.3	14	4.83	41.3	26.9	3.02	13.9	4.88	39.9	32.7	32.5	20.5	9.82	34.5	4.8	25.1	38.5	21.4	25.6	23.5
CNC(=O)c1cccc(-c2ccc3c(N4CCOC[C@@H]4C)nc(N4CCOC[C@@H]4C)nc3n2)c1 [AZD2014] (10000 nM)	96.4	74.9	106	58.9	90.1	77.8	86.3	110	95	108	104	129	96	107	95	95.2	136	93.4	49.6	19.9	23.6	15.3	20.6	27.3	23.8	25.4	65.3	42.3	34.1	27.4	33.9	46.2	54.4	33	25.6	33.6	20
Cc1cc(Nc2cc(CN3CCOCC3)c3nc(C)c(Cc4ccc(Cl)cc4F)n3n2)n[nH]1 [Gandotinib] (10000 nM)	80.9	83.8	59.9	69.7	24	51.3	103	100	92	101	102	-107	58.1	67.7	82	88.8	11.5	76	44.5	14.2	27.9	96.7	26	58.8	72.3	51.7	75.9	64.2	39.4	7.38	41.2	27.9	49	120	28.5	59.8	50.8
CCn1c(-c2nonc2N)nc2cnc(Oc3cccc(NC(=O)c4ccc(OCCN5CCOCC5)cc4)c3)cc21 (10000 nM)	98	100	103	-66.5	43.7	109	97.6	-33.8	97.9	78.5	109	110	93.4	52.4	74.1	108	74.3	93.6	66	41.4	58.5	69.9	32.8	87.8	80	76.4	74.6	76.6	75.9	49	62.9	64.4	73.3	72.2	50.7	62.1	40.9
CCOC(=O)CCNc1cc(N2CCc3ccccc3CC2)nc(-c2ccccn2)n1 [GSK-J4] (100000 nM)	-13.6	-16.3	-21.8	3.2	-10.9	-35.9	79.7	24.1	70.9	-33.8	-15.5	-146	-83.7	-38.5	-10.7	2.15	-155	-2.28	0.77	0.26	0.19	0.06	0.09	0.22	0.52	-0.1	-0.22	0.08	1.14	0.22	0.14	0.03	0.01	-0.16	0.05	-0.08	-0.42
S=P(N1CC1)(N1CC1)N1CC1 [Thio-TEPA] (50000 nM)	101	93.5	99	89.4	48.1	93.8	97.7	–	97.7	73.4	97.6	–	97.2	113	103	103	119	77.7	91.7	77.2	97.2	98.1	63.8	93.7	100	95.6	111	93	99.7	103	104	94.8	104	111	96.9	101	101
CNC(=O)c1ccc(N2C(=S)N(c3ccc(C#N)c(C(F)(F)F)c3)C(=O)C23CCC3)cc1F [RD162] (10000 nM)	103	84.9	101	97.4	109	91.2	98.4	–	97.1	90.6	106	110	111	99.8	95.4	96.3	89.8	50.8	89.8	96.3	101	105	95.3	91.5	95.5	95	106	93.8	92.3	101	102	85.1	92.6	91.8	93.3	89.5	95.3

— the supplement of paper PMC4862054
